Measurements as given in US20260217701A1, “SELECTIVE BET INHIBITORS AND USES THEREOF” (Tay Therapeutics Limited, priority 2022, published 2026).
Where two headings read alike, the source gives them in different places.

Experiment: Rat PK study #3 (ABBV-744 IV 1 mg/kg and PO 5 mg/kg)
Type: in vivo, SD rats
Settings: male, Sprague-Dawley, rat, plasma, SD rats, DMSO/PEG-400/Milli-Q water formulation; for C0: read-out: C0; for MRT inf: read-out: MRTInf_obs; for Tmax: read-out: Tmax
Method: For the third rat pharmacokinetic study, the pharmacokinetics of ABBV-744 were assessed in male SD rats for comparison to Compound A. ABBV-744 was prepared in a formulation of 5% DMSO, 40% PEG-400, and 55% Milli-Q water (see Table 2D for formulation) and delivered to animals orally (PO) at a dose of 5 mg/kg, or intravenously (IV) at a dose of 1 mg/kg. Animals in each group (n=3) were then monitored over a 24-hour period.
Blood samples (~0.2 mL) were collected according to a schedule (IV administration: 0.033, 0.083, 0.25, 0.5, 1, 2, 4, and 8 h following the initial dosing; PO administration: 0.083, 0.25, 0.5, 1, 2, 4, 8, and 24 h following the initial dosing) by jugular vein by cannulation except for the dosing vein (for IV group), and EDTA-K2 was used as anticoagulant. Within 30 minutes of collection, the samples were centrifuged at approximately 4000 times g-force for 5 minutes at 4° C. to obtain blood plasma. The plasma samples were immediately divided into two aliquots (~75 µL each), transferred to a cryogenic vial, and stored in a freezer at −75±15° C. prior to analysis.
The concentration of ABBV-744 in plasma samples was determined by liquid chromatography-mass spectrometry (LC-MS/MS) using a Shimadzu HPLC(DGU-405; LC-40D XS CN; SIL-40C XSCN; Plate Changer CN; CTO-40C CN; and CBM-40 CN) and an AB API 5500+LC/MS/MS instrument. Samples were analyzed on an Agilent Poroshell Bonus RP 2.7 μm (50×2.1 mm) column. Solution A in the mobile phase was 95% water (0.1% formic acid) and solution B was 95% acetonitrile in water (0.1% formic acid), injection volume was 6 μL, and flow rate was 0.6 mL/min.
To prepare samples for analysis, serial concentrations were prepared by diluting the stock solution of analyte with a 50% acetonitrile in water solution. 5 μL working solutions (5, 10, 20, 50, 100, 500, 1000, 5000, and 10000 ng/mL) were added to 50 μL of the blank SD rat plasma to achieve calibration standards of ~0.5 to 1000 ng/ml (0.5, 1, 2, 5, 10, 50, 100, 500, and 1000 ng/ml) in a total volume of 55 μL. Five quality control samples at 1 ng/ml, 2 ng/ml, 5 ng/ml, 50 ng/mL, and 800 ng/ml for plasma were prepared independently of those used for the calibration curves. These QC samples were prepared on the day of analysis in the same way as calibration standards.
55 μL of standards, 55 μL of QC samples and 55 μL of unknown samples (50 μL of unknown rat plasma with 5 µL of blank solution) were added to 200 µL of acetonitrile containing IS mixture (verapamil) for precipitating protein respectively. The samples were then vortexed for 30 s. After centrifugation at 4° C., 3900 rpm for 15 min, the supernatant was diluted 3 times with water. 6 μL of diluted supernatant was injected into the LC/MS/MS system for quantitative analysis.

[1] = iv, 1 mg/kg, IV 1 mg/kg, individual animals
[2] = iv, 1 mg/kg, IV 1 mg/kg, mean of 3 animals
[3] = po, 5 mg/kg, PO 5 mg/kg, mean of 3 animals

Work on `CCNC(=O)c1cc2c(-c3cc(C(C)(C)O)ccc3Oc3c(C)cc(F)cc3C)cn(C)c(=O)c2[nH]1` [ABBV-744] yielded a concentration at 0.083 h [1] of 351 ng/mL, a concentration at 0.083 h [2] of 337 ng/mL and a concentration at 0.25 h [1] of 248 ng/mL. For the same compound, the concentration at 0.25 h [2] was 268 ng/mL, the concentration at 0.5 h [1] was 191 ng/mL and the concentration at 0.5 h [2] was 203 ng/mL. It also gave a concentration at 1 h [1] of 158 ng/mL, a concentration at 1 h [2] of 154 ng/mL and a concentration at 2 h [1] of 103 ng/mL. It also gave a concentration at 2 h [2] of 110 ng/mL, a concentration at 4 h [1] of 48 ng/mL and a concentration at 4 h [2] of 52.9 ng/mL. It also gave a concentration at 8 h [1] of 12.6 ng/mL, a concentration at 8 h [2] of 15.3 ng/mL and an AUC(0-inf) [1] of 669 ng·h/mL. The AUC(0-t) [1] was 633 ng·h/mL, the half-life [1] was 1.99 h and the C0 [1] was 580 ng/mL. It also gave an MRT inf [1] of 2.47 h, an AUC(0-inf) [2] of 716 ng·h/mL and an AUC(0-t) [2] of 668 ng·h/mL. It also gave a half-life [2] of 2.12 h, a C0 [2] of 613 ng/mL and an MRT inf [2] of 2.65 h. For the same compound, the concentration at 0.083 h [3] was 1.61 ng/mL, the concentration at 0.25 h [3] was 19.3 ng/mL and the concentration at 0.5 h [3] was 43 ng/mL. The concentration at 1 h [3] was 59 ng/mL, the concentration at 2 h [3] was 89 ng/mL and the concentration at 4 h [3] was 127 ng/mL. It also gave a concentration at 8 h [3] of 113 ng/mL, a concentration at 24 h (po, 5 mg/kg, PO 5 mg/kg, 24 h, mean of 3 animals) of 2.17 ng/mL and a Tmax (po, 5 mg/kg, PO 5 mg/kg, individual animals) of 8 h. The AUC(0-t) [3] was 1730 ng·h/mL, the Cmax (po, 5 mg/kg, PO 5 mg/kg, mean of 3 animals, read-out: Cmax) was 132 ng/mL and the Tmax [3] was 5.33 h.
